Read-outs that look alike come from different tables or passages of the source.
How the values were obtained:
Type in all cases: in vivo
Horseweed = assay: Test F postemergence plant response; details: scale 0 to 100
[1] = tested on: blackgrass (Alopecurus myosuroides); assay: Test E pre-/postemergence plant response; details: scale 0 to 100, read-out: Plant response rating, Blackgrass; for pest or weed control at 16 g/ha: 16 g ai/ha; for pest or weed control at 31 g/ha: 31 g ai/ha; for pest or weed control at 62 g/ha: 62 g ai/ha; for pest or weed control at 125 g/ha: 125 g ai/ha
Method in brief: (§1)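 Visual scores on a 0–100 scale (100 = complete control) were assigned against untreated controls 7–21 days after treatment in a controlled environment. Compounds, formulated with solvent plus surfactant, were applied to pre-emergence silt-loam sowings or to 1- to 4-leaf plants (2–18 cm) in potting medium.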

[2] = tested on: bluegrass (annual bluegrass, Poa annua); assay: Test E pre-/postemergence plant response; details: scale 0 to 100, read-out: Plant response rating, Bluegrass; for pest or weed control at 16 g/ha: 16 g ai/ha; for pest or weed control at 31 g/ha: 31 g ai/ha; for pest or weed control at 62 g/ha: 62 g ai/ha; for pest or weed control at 125 g/ha: 125 g ai/ha
Method in brief: as §1

[3] = tested on: chamomile (scentless chamomile, Matricaria inodora); assay: Test E pre-/postemergence plant response; details: Tripleurospermum inodorum, scale 0 to 100, read-out: Plant response rating, Chamomile; for pest or weed control at 16 g/ha: 16 g ai/ha; for pest or weed control at 31 g/ha: 31 g ai/ha; for pest or weed control at 62 g/ha: 62 g ai/ha; for pest or weed control at 125 g/ha: 125 g ai/ha
Method in brief: as §1

[4] = tested on: deadnettle (henbit deadnettle, Lamium amplexicaule); assay: Test E pre-/postemergence plant response; details: scale 0 to 100, read-out: Plant response rating, Deadnettle; for pest or weed control at 16 g/ha: 16 g ai/ha; for pest or weed control at 31 g/ha: 31 g ai/ha; for pest or weed control at 62 g/ha: 62 g ai/ha; for pest or weed control at 125 g/ha: 125 g ai/ha
Method in brief: as §1

[5] = tested on: downy bromegrass (Bromus tectorum); assay: Test E pre-/postemergence plant response; details: scale 0 to 100, read-out: Plant response rating, Bromegrass, Downy; for pest or weed control at 16 g/ha: 16 g ai/ha; for pest or weed control at 31 g/ha: 31 g ai/ha; for pest or weed control at 62 g/ha: 62 g ai/ha; for pest or weed control at 125 g/ha: 125 g ai/ha
Method in brief: as §1

[6] = tested on: galium (catchweed bedstraw, Galium aparine); assay: Test E pre-/postemergence plant response; details: scale 0 to 100, read-out: Plant response rating, Galium; for pest or weed control at 16 g/ha: 16 g ai/ha; for pest or weed control at 31 g/ha: 31 g ai/ha; for pest or weed control at 62 g/ha: 62 g ai/ha; for pest or weed control at 125 g/ha: 125 g ai/ha
Method in brief: as §1

[7] = tested on: lambsquarters (Chenopodium album); assay: Test E pre-/postemergence plant response; details: scale 0 to 100, read-out: Plant response rating, Lambsquarters; for pest or weed control at 16 g/ha: 16 g ai/ha; for pest or weed control at 31 g/ha: 31 g ai/ha; for pest or weed control at 62 g/ha: 62 g ai/ha; for pest or weed control at 125 g/ha: 125 g ai/ha
Method in brief: as §1

[8] = tested on: winter barley (Hordeum vulgare); assay: Test E pre-/postemergence plant response; details: post-emergence, Postemergence, scale 0 to 100, read-out: Plant response rating, Barley, Winter
Method in brief: as §1

Fc1ccc(Oc2ncc(Cl)cn2)c(-c2cc(C(F)F)on2)c1Cl [Compound 96]
Plant response rating, Horseweed (Horseweed; 16 g ai/ha Postemergence): 0 | Plant response rating, Horseweed (Horseweed; 31 g ai/ha Postemergence): 0 | Plant response rating, Horseweed (Horseweed; 62 g ai/ha Postemergence): 0 | Plant response rating, Horseweed (Horseweed; 125 g ai/ha Postemergence): 10

CC(F)(F)c1cc(-c2ccccc2Oc2ncc(Br)cn2)no1 [Compound 149]
Plant response rating, Horseweed (Horseweed; 16 g ai/ha Postemergence): 0 | Plant response rating, Horseweed (Horseweed; 31 g ai/ha Postemergence): 20 | Plant response rating, Horseweed (Horseweed; 62 g ai/ha Postemergence): 10 | Plant response rating, Horseweed (Horseweed; 125 g ai/ha Postemergence): 20

FC(F)c1cc(-c2c(Cl)cccc2Oc2ncc(Cl)cn2)no1 [Compound 179]
Plant response rating, Horseweed (Horseweed; 16 g ai/ha Postemergence): 0 | Plant response rating, Horseweed (Horseweed; 31 g ai/ha Postemergence): 0 | Plant response rating, Horseweed (Horseweed; 62 g ai/ha Postemergence): 10 | Plant response rating, Horseweed (Horseweed; 125 g ai/ha Postemergence): 10

FC(F)(F)c1cc(-c2ccccc2Oc2ncc(Cl)cn2)no1 [Compound 200, 5-chloro-2-[2-[5-(trifluoromethyl)-3-isoxazolyl]phenoxy]pyrimidine]
pest or weed control at 16 g/ha ([1]; post-emergence, Postemergence): 15% | pest or weed control at 31 g/ha ([1]; post-emergence, Postemergence): 35% | pest or weed control at 62 g/ha ([1]; post-emergence, Postemergence): 55% | pest or weed control at 125 g/ha ([1]; post-emergence, Postemergence): 75% | pest or weed control at 16 g/ha ([1]; pre-emergence, Preemergence): 25% | pest or weed control at 31 g/ha ([1]; pre-emergence, Preemergence): 75% | pest or weed control at 62 g/ha ([1]; pre-emergence, Preemergence): 90% | pest or weed control at 125 g/ha ([1]; pre-emergence, Preemergence): 100% | pest or weed control at 16 g/ha ([2]; post-emergence, Postemergence): 20% | pest or weed control at 31 g/ha ([2]; post-emergence, Postemergence): 35% | pest or weed control at 62 g/ha ([2]; post-emergence, Postemergence): 55% | pest or weed control at 125 g/ha ([2]; post-emergence, Postemergence): 70% | pest or weed control at 16 g/ha ([2]; pre-emergence, Preemergence): 20% | pest or weed control at 31 g/ha ([2]; pre-emergence, Preemergence): 70% | pest or weed control at 62 g/ha ([2]; pre-emergence, Preemergence): 95% | pest or weed control at 125 g/ha ([2]; pre-emergence, Preemergence): 100% | pest or weed control at 16 g/ha ([3]; post-emergence, Postemergence): 5% | pest or weed control at 31 g/ha ([3]; post-emergence, Postemergence): 10% | pest or weed control at 62 g/ha ([3]; post-emergence, Postemergence): 10% | pest or weed control at 125 g/ha ([3]; post-emergence, Postemergence): 15% | pest or weed control at 16 g/ha ([3]; pre-emergence, Preemergence): 25% | pest or weed control at 31 g/ha ([3]; pre-emergence, Preemergence): 25% | pest or weed control at 62 g/ha ([3]; pre-emergence, Preemergence): 60% | pest or weed control at 125 g/ha ([3]; pre-emergence, Preemergence): 75% | pest or weed control at 16 g/ha ([4]; post-emergence, Postemergence): 50% | pest or weed control at 31 g/ha ([4]; post-emergence, Postemergence): 60% | pest or weed control at 62 g/ha ([4]; post-emergence, Postemergence): 80% | pest or weed control at 125 g/ha ([4]; post-emergence, Postemergence): 90% | pest or weed control at 16 g/ha ([4]; pre-emergence, Preemergence): 60% | pest or weed control at 31 g/ha ([4]; pre-emergence, Preemergence): 90% | pest or weed control at 62 g/ha ([4]; pre-emergence, Preemergence): 100% | pest or weed control at 125 g/ha ([4]; pre-emergence, Preemergence): 100% | pest or weed control at 16 g/ha ([5]; post-emergence, Postemergence): 5% | pest or weed control at 31 g/ha ([5]; post-emergence, Postemergence): 10% | pest or weed control at 62 g/ha ([5]; post-emergence, Postemergence): 25% | pest or weed control at 125 g/ha ([5]; post-emergence, Postemergence): 35% | pest or weed control at 16 g/ha ([5]; pre-emergence, Preemergence): 10% | pest or weed control at 31 g/ha ([5]; pre-emergence, Preemergence): 35% | pest or weed control at 62 g/ha ([5]; pre-emergence, Preemergence): 45% | pest or weed control at 125 g/ha ([5]; pre-emergence, Preemergence): 80% | pest or weed control at 16 g/ha ([6]; post-emergence, Postemergence): 70% | pest or weed control at 31 g/ha ([6]; post-emergence, Postemergence): 75% | pest or weed control at 62 g/ha ([6]; post-emergence, Postemergence): 75% | pest or weed control at 125 g/ha ([6]; post-emergence, Postemergence): 90% | pest or weed control at 16 g/ha ([6]; pre-emergence, Preemergence): 15% | pest or weed control at 31 g/ha ([6]; pre-emergence, Preemergence): 25% | pest or weed control at 62 g/ha ([6]; pre-emergence, Preemergence): 55% | pest or weed control at 125 g/ha ([6]; pre-emergence, Preemergence): 100% | pest or weed control at 16 g/ha ([7]; post-emergence, Postemergence): 75% | pest or weed control at 31 g/ha ([7]; post-emergence, Postemergence): 85% | pest or weed control at 62 g/ha ([7]; post-emergence, Postemergence): 90% | pest or weed control at 125 g/ha ([7]; post-emergence, Postemergence): 95% | pest or weed control at 16 g/ha ([7]; pre-emergence, Preemergence): 10% | pest or weed control at 31 g/ha ([7]; pre-emergence, Preemergence): 85% | pest or weed control at 62 g/ha ([7]; pre-emergence, Preemergence): 100% | pest or weed control at 125 g/ha ([7]; pre-emergence, Preemergence): 100% | plant injury at 16 g/ha ([8]; 16 g ai/ha): 5% | plant injury at 31 g/ha ([8]; 31 g ai/ha): 10% | plant injury at 62 g/ha ([8]; 62 g ai/ha): 20% | plant injury at 125 g/ha ([8]; 125 g ai/ha): 25%

FC(F)c1cc(-c2ccccc2Oc2ncc(Br)cn2)on1 [Compound 212]
Plant response rating, Horseweed (Horseweed; 16 g ai/ha Postemergence): 0 | Plant response rating, Horseweed (Horseweed; 31 g ai/ha Postemergence): 0 | Plant response rating, Horseweed (Horseweed; 62 g ai/ha Postemergence): 15 | Plant response rating, Horseweed (Horseweed; 125 g ai/ha Postemergence): 10

Fc1ccc(Oc2ncc(Cl)cn2)c(-c2cc(C(F)(Cl)Cl)on2)c1 [Compound 221]
Plant response rating, Horseweed (Horseweed; 16 g ai/ha Postemergence): 0 | Plant response rating, Horseweed (Horseweed; 31 g ai/ha Postemergence): 5 | Plant response rating, Horseweed (Horseweed; 62 g ai/ha Postemergence): 10 | Plant response rating, Horseweed (Horseweed; 125 g ai/ha Postemergence): 30
